Experimental data published in patent US20230279016A1, “Tetrahydropyrazolopyrimidines and Related Analogs for Inhibiting YAP/TAZ-TEAD” (THE KATHOLIEKE UNIVERSITEIT LEUVEN, priority 2021, published 2023).

System: YAP/TAZ-TEAD transcription
Assay: Reporter gene assay for measuring the inhibition of YAP/TAZ-TEAD transcription (TEAD-responsive element luciferase reporter in Hek293T cells)
Assay type: cell-based
Conditions: Hek293T cells transiently transfected with TEAD-responsive element luciferase reporter, 24 hours incubation
Summary of the method: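 Hek293T cells transiently transfected with TEAD-responsive luciferase reporter, exposed to compound for 24 h at 37° C/5% CO2, then read by luminescence. Percent inhibition normalized to vehicle (0%) and positive control inhibitor (100%); EC50 reported as activity ranges.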

Structure (SMILES)	EC50 [nM]	EC50 (Homo sapiens, HEK-293T, 24 h) [nM]
C=CC(=O)NCC1CN(c2ccc(C(F)(F)F)cc2)c2cc(CC3CC3)nn2C1 (single isomer, unassigned) [Cpd. No. 032-En2, (R)- or (S)-N-((2-(cyclopropylmethyl)-4-(4-(trifluoromethyl)phenyl)-4,5,6,7-tetrahydropyrazolo[1,5-a]pyrimidin-6-yl)methyl)acrylamide]	< 1000	
C=CC(=O)NCC1CN(c2ccc(OC(F)(F)F)cc2)c2cc(C)nn2C1 (single isomer, unassigned) [Cpd. No. 030-En1, (R)- or (S)-N-((2-methyl-4-(4-(trifluoromethoxy)phenyl)-4,5,6,7-tetrahydropyrazolo[1,5-a]pyrimidin-6-yl)methyl)acrylamide]	< 1000	
C=CC(=O)NCC1CN(c2ccc(-c3ccccc3)cc2)c2ccnn2C1 (single isomer, unassigned) [Cpd. No. 017-En1, (R)- or (S)-N-((4-([1,1′-biphenyl]-4-yl)-4,5,6,7-tetrahydropyrazolo[1,5-a]pyrimidin-6-yl)methyl)acrylamide]	> 20000	
C#Cc1ccc(N2CC(CNC(=O)C=C)Cn3nccc32)cc1 (stereo not shown) [Cpd. No. 036, N-((4-(4-ethynylphenyl)-4,5,6,7-tetrahydropyrazolo[1,5-a]pyrimidin-6-yl)methyl)acrylamide]		< 1000
Cn1ncc2c1CC(CNS(C)(=O)=O)CN2c1ccc(OC(F)(F)F)cc1 (stereo not shown) [Cpd. No. 078, N-((1-methyl-4-(4-(trifluoromethoxy)phenyl)-4,5,6,7-tetrahydro-1H-pyrazolo[4,3-b]pyridin-6-yl)methyl)methanesulfonamide]		> 20000
C=CC(=O)NC1CN(c2ccc(Cl)cc2)c2ccnn2C1 (stereo not shown) [Cpd. No. 066, N-(4-(4-chlorophenyl)-4,5,6,7-tetrahydropyrazolo[1,5-a]pyrimidin-6-yl)acrylamide]		< 1000
C=CC(=O)NCC1CN(c2ccc(C(F)(F)F)cc2)c2cc(C#N)nn2C1 (single isomer, unassigned) [Cpd. No. 033-En2, (R)- or (S)-N-((2-cyano-4-(4-(trifluoromethyl)phenyl)-4,5,6,7-tetrahydropyrazolo[1,5-a]pyrimidin-6-yl)methyl)acrylamide]	< 1000	
CS(=O)(=O)N1CCC2(CN(c3ccc(C(F)(F)F)cc3)c3ccnn3C2)C1=O (single isomer, unassigned) [Cpd. No. 089-En2, (R)- or (S)-1′-(methylsulfonyl)-4-(4-(trifluoromethyl)phenyl)-4,5-dihydro-7H-spiro[pyrazolo[1,5-a]pyrimidine-6,3′-pyrrolidin]-2′-one]	> 20000	
C=CC(=O)NCC1CN(c2ccc3scnc3c2)c2ccnn2C1 (single isomer, unassigned) [Cpd. No. 026-En2, (R)- or (S)-N-((4-(benzo[d]thiazol-5-yl)-4,5,6,7-tetrahydropyrazolo[1,5-a]pyrimidin-6-yl)methyl)acrylamide]	1000 to 20000	
C=CC(=O)NCC1CN(c2ccc(C(F)(F)F)cc2)c2ccnn2C1 (single isomer, unassigned) [Cpd. No. 002-En1, (R)- or (S)-N-((4-(4-(trifluoromethyl)phenyl)-4,5,6,7-tetrahydropyrazolo[1,5-a]pyrimidin-6-yl)methyl)acrylamide]	< 1000	
CCC(=O)NCC1Cc2nn(C)cc2N(c2ccc(C(F)(F)F)cc2)C1 (stereo not shown) [Cpd. No. 073, N-((2-methyl-4-(4-(trifluoromethyl)phenyl)-4,5,6,7-tetrahydro-2H-pyrazolo[4,3-b]pyridin-6-yl)methyl)propionamide]		< 1000
C=CC(=O)NCC1CN(S(=O)(=O)c2ccc(C(F)(F)F)cc2)c2ccnn2C1 (stereo not shown) [Cpd. No. 045, N-((4-((4-(trifluoromethyl)phenyl)sulfonyl)-4,5,6,7-tetrahydropyrazolo[1,5-a]pyrimidin-6-yl)methyl)acrylamide]	> 20000	
C=CC(=O)NCC1CN(Cc2ccccc2)c2ccnn2C1 (single isomer, unassigned) [Cpd. No. 049-En2, (R)- or (S)-N-((4-benzyl-4,5,6,7-tetrahydropyrazolo[1,5-a]pyrimidin-6-yl)methyl)acrylamide]		< 1000
